Assays:
Format in all cases: cell-based, human
[1] = system: KRAS-mutant pancreatic cancer cells; experiment: Matrigel invasion assay, pancreatic cancer cell lines; conditions: 100 uM chloroquine, 24 hours
Protocol: FIG. 12C illustrates changes in matrigel invasiveness after treating the pancreatic cancer cell line with 100 uM chloroquine (CQ) for 24 hours, and the bright-field micrographs of cells infiltrating through the matrigel coated transwell membrane (top) and quantification results (bottom) are shown.
For the 2D invasion assay, the inserts were pre-coated with 300 μg/ml Matrigel (Coming, 354234). After staining with […] dye (Bio-Rad, 1450013), 1×10^5 live cells per 8-um-pore cell-culture insert (Costar. 3422) were seeded in 0.5% ACL medium. 10% ACL medium was added to the outside of the insert. In the case of lung cancer and pancreatic cancer cell lines, after inoculation in 1% RPMI medium, 20% RPMI medium was added to the outside of the insert. Plates were incubated for 24 hours at 37° C. After incubation, the insert was fixed with 3.7% PFA, washed, stained with 0.4% crystal violet, and the upper membrane was washed and dried.

[2] = system: LC3; experiment: Autophagic flux (LC3 Western blot, mRFP-GFP-LC3 lysosomal delivery assay); conditions: HBEC-KL cells; 50 uM chloroquine for 6 hours
[3] = system: SNAI1 gene; experiment: Real-time PCR of SNAI1 gene; conditions: HBEC-KL cell line; 50 uM chloroquine, 24 hours
Protocol: After synthesizing complementary DNA (cDNA) using the TOPscript·8 cDNA synthesis kit (Enzynomics, EZ0054), gRT-PCR was performed with TCPreal™ gRCR 2× PreMIX (SYBR Green with low ROX) (Enzynomics, RT501M). GAPDH and beta-actin were used for RNA normalization. qRT-PCR was performed with a StepOne Plus (Applied Biosystems) instrument.

[4] = system: Intracellular acetyl-CoA; experiment: Acetyl-CoA measurement; conditions: KRAS-mutant pancreatic cancer cells; 100 uM chloroquine, 24 hours
Protocol: Intracellular acetyl-CoA levels were calculated in the pmol range using the PicoProbe Acetyl-CoA Assay Kit (Biovision, K317). […] After correcting the background in all readings, the value of each sample was determined and normalized to the protein concentration of each sample.

[5] = system: acetylated Snail; experiment: Immunoprecipitation-immunoblot of acetylated Snail; conditions: KRAS-mutant pancreatic cancer cells; 100 uM chloroquine, 24 hours
Protocol: Cell lysates (1 μg protein) were incubated overnight at 4° C. on anti-FLAG® M2 Affinity Gel (Sigma, A2220) or anti-acetyl-lysine antibody coated agarose (ImmuneChem Pharmaceuticals, ICP0388). The immunoprecipitate was then washed three times in IP buffer, and the immunoprecipitated complex was dissolved and separated by boiling in IP buffer for 5 minutes.
For SDS-PAGE electrophoresis, the immunoprecipitated complex was transferred to a nitrocellulose membrane and the membrane was blocked and then incubated for 1 hour at room temperature with Primary antibody and secondary antibody (VeriBlot for IP Detection Reagent (HRP) (Abcam, #ab131366), and anti-mouse IgG tor IP (HRP) (Abeam, #ab131368)).
After washing 3 times, the membrane was incubated with the secondary antibody.

[6] = system: total protein acetylation; experiment: Western blot of total protein acetylation; conditions: HBEC-KL; 50 uM chloroquine, 24 hours; same effect = reduced
Protocol: Cells were harvested, washed with PBS, and lysed on ice with RIPA buffer containing protease and phophatase inhibitor cocktail (GenDEPOT). After 15 minutes of incubation, the cell lysates were centrifuged at 15,000 rpm at 4° C. for 10 minutes. Protein concentration was measured by Bradford assay (Bio-rad, 500-0006). Equal amounts of total protein were placed on an SDS gel electrophoresis and transferred to a PVDF membrane (Bio-rad). The membrane was blocked with 5% skim milk for 1 hour at room temperature and incubated overnight at 4° C. with primary antibody in a buffer containing 0.1% Tween-20. Subsequently, the membrane was washed three times with Tween-PBS buffer and incubated for 1 hour at room temperature using a secondary antibody diluted in blocking buffer containing 0.1% Tween-20. Subsequently, the membrane was washed three times for 10 minutes each using Tween-TBS. Densitometry of Western blots was measured using ImageJ software.

[7] = system: Snail; experiment: Western blot of Snail protein; conditions: HBEC-KL cell line; chloroquine 12 to 48 hours

CCN(CC)CCCC(C)Nc1ccnc2cc(Cl)ccc12 (stereo not shown) [CQ, chloroquine]
2D Matrigel transwell invasion [1]: reduced
LC3-II accumulation [2]: high levels
SNAI1 mRNA expression level [3]: no change
acetyl-CoA [4]: reduced
acetylated Snail [5]: reduced
overall protein acetylation [6]: the same effect
expression level of Snail protein [7]: reduced

Source: patent US20240041842A1, “PHARMACEUTICAL COMPOSITION FOR INHIBITING CANCER METASTASIS” (INDUSTRY-ACADEMIC COOPERATION FOUNDATION, YONSEI UNIVERSITY, priority 2021, published 2024)
